Assay results reported in article PMC9506414, “Novel 2,6,9-Trisubstituted Purines as Potent CDK Inhibitors Alleviating Trastuzumab-Resistance of HER2-Positive Breast Cancers” (Pharmaceuticals, 2022).

Columns and labels:
CYP1A2 = molecular target: T1, CYP1A2 (Homo sapiens, UniProt P05177); test: CYP inhibition; assay type: in vitro ADME
T1 sequence (P05177 1-516): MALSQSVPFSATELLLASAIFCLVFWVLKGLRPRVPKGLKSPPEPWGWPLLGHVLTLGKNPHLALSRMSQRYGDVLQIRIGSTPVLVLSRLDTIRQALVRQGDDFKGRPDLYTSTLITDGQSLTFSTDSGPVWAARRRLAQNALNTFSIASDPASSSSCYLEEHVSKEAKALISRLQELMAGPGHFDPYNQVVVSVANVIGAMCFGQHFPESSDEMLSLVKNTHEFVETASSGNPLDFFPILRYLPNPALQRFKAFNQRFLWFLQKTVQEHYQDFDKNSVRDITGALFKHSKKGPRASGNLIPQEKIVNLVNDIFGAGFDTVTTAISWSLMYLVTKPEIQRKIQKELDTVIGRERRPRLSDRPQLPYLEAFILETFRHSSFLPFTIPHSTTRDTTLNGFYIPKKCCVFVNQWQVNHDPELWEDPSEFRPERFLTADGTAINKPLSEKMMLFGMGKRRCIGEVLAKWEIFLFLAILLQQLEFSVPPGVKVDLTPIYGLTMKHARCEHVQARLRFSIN
Method: Table 6 In vitro liver metabolic stability and activity against CYPs of potent analogues. | column: CYP % Activity at 10 μM / 1A2

CYP2C9 = CYP2C9 (Homo sapiens, UniProt P11712); test: CYP inhibition; assay type: in vitro ADME
CYP2C9, sequence (P11712 whole entry): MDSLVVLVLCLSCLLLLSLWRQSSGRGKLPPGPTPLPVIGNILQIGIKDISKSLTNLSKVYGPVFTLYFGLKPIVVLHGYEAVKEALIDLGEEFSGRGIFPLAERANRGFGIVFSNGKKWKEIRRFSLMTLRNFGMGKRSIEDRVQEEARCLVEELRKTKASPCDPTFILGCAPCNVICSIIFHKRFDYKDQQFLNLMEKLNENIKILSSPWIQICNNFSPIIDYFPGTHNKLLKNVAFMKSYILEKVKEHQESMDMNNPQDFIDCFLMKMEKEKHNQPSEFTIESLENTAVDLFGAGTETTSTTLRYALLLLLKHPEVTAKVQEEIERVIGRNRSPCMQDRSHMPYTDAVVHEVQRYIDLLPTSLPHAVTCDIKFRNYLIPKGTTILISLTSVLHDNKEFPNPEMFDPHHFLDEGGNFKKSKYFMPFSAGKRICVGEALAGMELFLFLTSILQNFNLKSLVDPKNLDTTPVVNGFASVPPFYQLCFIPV
Method: Table 6 In vitro liver metabolic stability and activity against CYPs of potent analogues. | column: CYP % Activity at 10 μM / 2C9

CYP2C19 = CYP2C19 (Homo sapiens, UniProt P33261); test: CYP inhibition; assay type: in vitro ADME
CYP2C19, sequence (P33261 whole entry): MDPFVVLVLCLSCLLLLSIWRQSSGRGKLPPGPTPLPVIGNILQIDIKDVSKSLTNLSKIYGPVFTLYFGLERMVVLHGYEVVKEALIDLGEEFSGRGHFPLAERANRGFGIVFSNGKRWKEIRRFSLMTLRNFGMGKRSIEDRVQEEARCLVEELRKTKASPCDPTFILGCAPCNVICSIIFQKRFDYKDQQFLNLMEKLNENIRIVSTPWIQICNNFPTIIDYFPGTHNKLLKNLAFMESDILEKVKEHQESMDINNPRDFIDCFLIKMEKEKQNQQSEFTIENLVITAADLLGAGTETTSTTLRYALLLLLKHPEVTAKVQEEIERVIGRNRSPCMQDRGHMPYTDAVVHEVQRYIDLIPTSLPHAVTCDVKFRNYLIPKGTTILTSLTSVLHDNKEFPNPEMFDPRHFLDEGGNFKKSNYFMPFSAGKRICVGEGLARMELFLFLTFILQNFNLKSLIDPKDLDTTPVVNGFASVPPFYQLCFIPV
Method: Table 6 In vitro liver metabolic stability and activity against CYPs of potent analogues. | column: CYP % Activity at 10 μM / 2C19

WNT1 [1] = test: Western blot of WNT1 in SK-Br3 cells; assay type: cell-based, human; conditions: 40 and 200 nM, 24 h
Description: (§1) For Western blot analysis, the following antibodies were used: anti-Pol II CTD (2629S, Cell Signaling Technology, Danvers, MA, USA), anti-Pol II p-CTD (Ser2) (13499S, Cell Signaling Technology), anti-cyclinK (A301-939A-M, Bethyl Laboratories), anti-IRS1 (3407S, Cell Signaling Technology), anti-WNT1 (SC-514531, Santa Cruz Biotechnology, Dallas, TX, USA), anti-β-actin (MAB1501R, Millipore, Burlington, MA, USA), and horseradish peroxidase (HRP)-conjugated secondary antibodies (anti-mouse GTX213112-01; anti-rabbit GTX213110-01) (Genetex, Irvine, CA, USA).
(§2) Cells were lysed with lysis buffer containing 50 mM Tris pH 7.4, 150 mM NaCl, 1 mM EDTA, 1% NP-40, and 0.25% sodium deoxycholate supplemented with protease-inhibitor and phosphatase-inhibitor cocktails. The lysate samples (25 μg/lane) were loaded onto 6–12% sodium dodecyl sulfate polyacrylamide gel and separated by electrophoresis (SDS-PAGE). The proteins were transferred to nitrocellulose membrane (Gelman Sciences, Ann Arbor, MI, USA) by electroblotting. The membranes were blocked with 5% non-fat dry milk (MB Cell, Seoul, Korea), incubated with primary antibodies for overnight at 4 °C. After the washing steps were performed with TBST solution, the membranes were incubated with HRP-conjugated secondary antibodies for 1 h at rt. […]

IRS1 = test: Western blot of IRS1 in HCC1954 cells; assay type: cell-based, human; conditions: 40 and 200 nM, 24 h
Description: as §1, §2

WNT1 [2] = test: Western blot of WNT1 in HCC1954 cells; assay type: cell-based, human; conditions: 40 and 200 nM, 24 h
Description: as §1, §2

PKAC-alpha = test: Kinome-wide inhibition profiling; assay type: biochemical, human; conditions: 10 μM
Method: (§3) In vitro CDK12/cyclinK assays for all compounds and in vitro kinome-wide inhibition profiling of 30d at 10 μM were performed by a CRO company (Reaction Biology Corp., San Diego, CA, USA).

CDK12/CyclinK [3] = molecular target: T2, CDK12/CyclinK (Homo sapiens, UniProt Q9NYV4); test: Kinome-wide inhibition profiling; assay type: biochemical; parameters: purchased Reaction Biology Corp
T2 sequence (Q9NYV4 whole entry): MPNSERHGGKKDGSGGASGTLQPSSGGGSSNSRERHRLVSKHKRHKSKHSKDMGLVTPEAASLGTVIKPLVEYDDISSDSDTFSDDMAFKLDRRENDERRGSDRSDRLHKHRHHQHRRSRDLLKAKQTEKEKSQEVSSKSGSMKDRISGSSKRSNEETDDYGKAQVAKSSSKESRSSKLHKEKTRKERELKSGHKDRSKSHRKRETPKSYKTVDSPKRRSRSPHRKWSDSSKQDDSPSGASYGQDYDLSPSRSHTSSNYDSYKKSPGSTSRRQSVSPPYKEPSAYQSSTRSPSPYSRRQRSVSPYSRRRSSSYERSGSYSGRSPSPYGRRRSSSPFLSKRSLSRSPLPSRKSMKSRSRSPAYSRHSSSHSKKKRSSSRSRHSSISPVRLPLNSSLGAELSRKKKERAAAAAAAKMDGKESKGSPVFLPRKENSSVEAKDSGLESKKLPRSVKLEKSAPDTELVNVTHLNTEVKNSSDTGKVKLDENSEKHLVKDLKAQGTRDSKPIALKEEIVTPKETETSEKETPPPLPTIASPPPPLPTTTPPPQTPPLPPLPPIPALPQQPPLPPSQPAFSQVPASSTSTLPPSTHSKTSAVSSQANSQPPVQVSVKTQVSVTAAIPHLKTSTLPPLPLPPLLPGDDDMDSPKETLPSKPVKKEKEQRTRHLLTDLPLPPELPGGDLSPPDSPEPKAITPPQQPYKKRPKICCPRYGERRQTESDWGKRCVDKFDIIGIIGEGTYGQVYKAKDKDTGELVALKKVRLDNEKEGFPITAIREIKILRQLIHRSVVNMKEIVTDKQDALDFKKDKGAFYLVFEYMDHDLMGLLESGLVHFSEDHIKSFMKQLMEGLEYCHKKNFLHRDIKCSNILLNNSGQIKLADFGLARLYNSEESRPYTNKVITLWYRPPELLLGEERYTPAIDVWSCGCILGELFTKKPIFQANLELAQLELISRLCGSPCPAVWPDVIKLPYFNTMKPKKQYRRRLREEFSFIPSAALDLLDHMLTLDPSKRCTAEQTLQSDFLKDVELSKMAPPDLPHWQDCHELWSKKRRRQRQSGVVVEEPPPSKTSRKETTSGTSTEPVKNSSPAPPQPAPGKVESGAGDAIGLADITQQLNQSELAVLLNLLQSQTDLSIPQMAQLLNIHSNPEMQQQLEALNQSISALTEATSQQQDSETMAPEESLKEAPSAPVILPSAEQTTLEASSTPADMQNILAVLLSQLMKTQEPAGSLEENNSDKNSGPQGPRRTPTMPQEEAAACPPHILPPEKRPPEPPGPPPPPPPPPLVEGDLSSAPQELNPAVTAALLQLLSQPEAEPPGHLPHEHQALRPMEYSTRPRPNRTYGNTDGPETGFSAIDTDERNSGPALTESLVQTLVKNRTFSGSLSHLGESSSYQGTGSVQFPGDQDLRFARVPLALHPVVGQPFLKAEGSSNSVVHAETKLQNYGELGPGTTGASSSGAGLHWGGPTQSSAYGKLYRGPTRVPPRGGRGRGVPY
T2 sequence (O75909 whole entry partner): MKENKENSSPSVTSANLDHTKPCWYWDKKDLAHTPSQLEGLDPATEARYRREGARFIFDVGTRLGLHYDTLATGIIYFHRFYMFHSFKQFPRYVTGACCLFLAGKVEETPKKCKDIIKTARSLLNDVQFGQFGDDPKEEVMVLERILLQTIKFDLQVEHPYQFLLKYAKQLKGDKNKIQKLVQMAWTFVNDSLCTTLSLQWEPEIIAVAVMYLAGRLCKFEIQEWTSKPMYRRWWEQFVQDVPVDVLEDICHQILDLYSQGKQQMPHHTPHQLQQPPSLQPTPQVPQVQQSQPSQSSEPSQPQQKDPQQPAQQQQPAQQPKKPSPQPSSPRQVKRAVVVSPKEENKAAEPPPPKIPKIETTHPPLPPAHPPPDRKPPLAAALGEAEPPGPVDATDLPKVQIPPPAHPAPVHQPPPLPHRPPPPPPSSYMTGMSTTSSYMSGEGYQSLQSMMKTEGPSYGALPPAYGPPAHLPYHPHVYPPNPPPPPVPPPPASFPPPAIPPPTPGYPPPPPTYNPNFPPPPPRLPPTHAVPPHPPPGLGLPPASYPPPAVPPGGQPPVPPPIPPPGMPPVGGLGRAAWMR
Method: as §3

CDK12/CyclinK [4] = molecular target: T2, CDK12/CyclinK; test: In vitro CDK12/cyclinK kinase assay; assay type: biochemical; parameters: purchased Reaction Biology Corp. (CRO that ran the assay); conditions: Table 5; means and standard deviations from three independent assays; read-out: CDK12/CyclinK (IC50/μM)
Method: as §3

CDK4-cyclinD1 = system: CDK4-cyclinD1; parameters: method as in HMS LINCS database; conditions: 10 μM, ref HMS LINCS database; cited from earlier work
CDC2L5 = system: CDC2L5; parameters: method as in HMS LINCS database; conditions: 10 μM, ref HMS LINCS database; cited from earlier work
CDK3 = system: CDK3; parameters: method as in HMS LINCS database; conditions: 10 μM, ref HMS LINCS database; cited from earlier work
PCTK1 = system: PCTK1; parameters: method as in HMS LINCS database; conditions: 10 μM, ref HMS LINCS database; cited from earlier work
TLK1 = molecular target: T3, TLK1 (Homo sapiens, UniProt Q9UKI8); parameters: method as in HMS LINCS database; conditions: 10 μM, ref HMS LINCS database; cited from earlier work
T3 construct: purchased Reaction Biology Corp
T3 sequence (Q9UKI8 whole entry): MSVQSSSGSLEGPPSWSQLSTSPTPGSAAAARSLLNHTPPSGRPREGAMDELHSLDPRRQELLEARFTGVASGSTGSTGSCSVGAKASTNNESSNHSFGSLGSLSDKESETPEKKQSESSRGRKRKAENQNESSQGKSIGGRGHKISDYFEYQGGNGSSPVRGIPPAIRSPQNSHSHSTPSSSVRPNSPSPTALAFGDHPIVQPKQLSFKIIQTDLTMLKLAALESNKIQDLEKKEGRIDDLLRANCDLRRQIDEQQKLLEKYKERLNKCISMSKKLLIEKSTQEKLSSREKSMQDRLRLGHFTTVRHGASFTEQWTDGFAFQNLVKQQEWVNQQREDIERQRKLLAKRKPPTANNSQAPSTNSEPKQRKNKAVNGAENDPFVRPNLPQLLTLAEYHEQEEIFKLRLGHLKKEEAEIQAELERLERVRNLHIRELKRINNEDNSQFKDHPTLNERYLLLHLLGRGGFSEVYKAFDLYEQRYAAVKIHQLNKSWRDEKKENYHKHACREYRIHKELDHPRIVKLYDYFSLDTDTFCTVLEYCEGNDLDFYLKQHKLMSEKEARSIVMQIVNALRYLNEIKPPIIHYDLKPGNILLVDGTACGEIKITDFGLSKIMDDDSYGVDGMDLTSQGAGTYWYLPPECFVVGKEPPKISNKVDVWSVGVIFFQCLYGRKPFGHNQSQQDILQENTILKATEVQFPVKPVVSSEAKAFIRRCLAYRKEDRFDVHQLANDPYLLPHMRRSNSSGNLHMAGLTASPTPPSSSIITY

CDK5 = system: CDK5; parameters: method as in HMS LINCS database; conditions: 10 μM, ref HMS LINCS database; cited from earlier work
CLK2 = molecular target: T4, CLK2 (Homo sapiens, UniProt P49760); parameters: method as in HMS LINCS database; conditions: 10 μM, ref HMS LINCS database; cited from earlier work
T4 construct: purchased Reaction Biology Corp
T4 sequence (P49760 whole entry): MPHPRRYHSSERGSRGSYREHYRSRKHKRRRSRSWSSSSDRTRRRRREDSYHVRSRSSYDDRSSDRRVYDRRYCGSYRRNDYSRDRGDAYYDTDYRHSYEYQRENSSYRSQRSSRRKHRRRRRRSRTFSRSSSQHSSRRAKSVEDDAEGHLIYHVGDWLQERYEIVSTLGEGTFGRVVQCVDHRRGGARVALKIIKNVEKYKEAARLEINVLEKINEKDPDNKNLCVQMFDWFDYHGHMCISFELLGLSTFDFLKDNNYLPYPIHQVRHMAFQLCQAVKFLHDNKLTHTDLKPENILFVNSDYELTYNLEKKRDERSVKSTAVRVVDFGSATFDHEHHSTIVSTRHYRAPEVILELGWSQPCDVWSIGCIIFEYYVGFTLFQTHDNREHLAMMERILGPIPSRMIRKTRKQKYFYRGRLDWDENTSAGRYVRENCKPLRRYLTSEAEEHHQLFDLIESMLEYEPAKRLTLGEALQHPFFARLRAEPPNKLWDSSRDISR

DYRK1B = molecular target: T5, DYRK1B (Homo sapiens, UniProt Q9Y463); parameters: method as in HMS LINCS database; conditions: 10 μM, ref HMS LINCS database; cited from earlier work
T5 construct: purchased Reaction Biology Corp
T5 sequence (Q9Y463 whole entry): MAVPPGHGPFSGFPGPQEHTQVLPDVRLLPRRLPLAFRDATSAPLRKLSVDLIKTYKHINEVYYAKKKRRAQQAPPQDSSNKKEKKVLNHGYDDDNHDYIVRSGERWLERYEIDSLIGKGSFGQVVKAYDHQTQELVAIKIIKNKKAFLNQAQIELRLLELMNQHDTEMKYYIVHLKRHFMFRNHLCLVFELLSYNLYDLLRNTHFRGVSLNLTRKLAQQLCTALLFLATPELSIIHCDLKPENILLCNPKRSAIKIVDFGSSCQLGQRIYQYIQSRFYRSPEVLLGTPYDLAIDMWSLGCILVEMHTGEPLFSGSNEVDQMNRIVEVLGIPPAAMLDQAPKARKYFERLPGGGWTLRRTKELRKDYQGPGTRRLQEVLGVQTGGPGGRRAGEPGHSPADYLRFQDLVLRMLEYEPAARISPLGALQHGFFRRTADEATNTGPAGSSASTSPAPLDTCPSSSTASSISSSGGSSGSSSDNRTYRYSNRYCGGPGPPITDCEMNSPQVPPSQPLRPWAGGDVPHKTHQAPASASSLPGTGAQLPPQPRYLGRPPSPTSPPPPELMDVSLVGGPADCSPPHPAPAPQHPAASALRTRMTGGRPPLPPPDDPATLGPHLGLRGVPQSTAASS

STK36 = system: STK36; parameters: method as in HMS LINCS database; conditions: 10 μM, ref HMS LINCS database; cited from earlier work

SMILES	CYP % Activity at 10 μM 1A2 (CYP1A2) [%]	CYP % Activity at 10 μM 2C9 (CYP2C9) [%]	CYP % Activity at 10 μM 2C19 (CYP2C19) [%]	WNT1 expression level (Western blot) (WNT1 [1])	IRS1 expression level (Western blot) (IRS1)	WNT1 expression level (Western blot) (WNT1 [2])	% remaining activity (PKAC-alpha) [%]	inhibition at 10 µM (CDK12/CyclinK [3]) [%]	remaining activity at 10 µM (CDK12/CyclinK [3]) [%]	IC50 (CDK12/CyclinK [4]) [µM]	% control (CDK4-cyclinD1) [%]	% control (CDC2L5) [%]	% control (CDK3) [%]	% control (PCTK1) [%]	% control (TLK1) [%]	% control (CDK5) [%]	% control (CLK2) [%]	% control (DYRK1B) [%]	% control (STK36) [%]
CCn1cnc2c(NCc3ccc(-c4ccccn4)nc3)nc(-c3ccc(N)nc3)nc21 [Compound 30d, N-([2,2′-Bipyridin]-5-ylmethyl)-2-(6-aminopyridin-3-yl)-9-ethyl-9H-purin-6-amine]	74.7	57.9	68.1	strong suppression of IRS1 and WNT1	strong suppression of IRS1 and WNT1	strong suppression of IRS1 and WNT1	62.4	> 95	1.1	0.021 ± 0.007									
CCn1cnc2c(NCc3ccc(-c4ccccn4)nc3)nc(-c3cnc(N)nc3)nc21 [Compound 30e, N-([2,2′-Bipyridin]-5-ylmethyl)-2-(2-aminopyrimidin-5-yl)-9-ethyl-9H-purin-6-amine]	87.6	81.6	72.6	strong suppression of IRS1 and WNT1	strong suppression of IRS1 and WNT1	strong suppression of IRS1 and WNT1				0.085 ± 0.011									
CCc1cnn2c(NCc3ccc[n+]([O-])c3)cc(N3CCCC[C@H]3CCO)nc12 [Dinaciclib]											0.1	0.3	0.3	0.3	0.9	1.8	4.2	6.0	7.8
